Data taken from the NIST ThermoML archive (doi:10.1016/j.fluid.2013.01.027).
± gives the expanded uncertainty stated by the source.

conditions: 298.15 K; 101.33 kPa; Liquid; Vibrating tube method

Going from `c1ccsc1` [thiophene] to `c1ccccc1` [benzene], the mass density falls from 1058.48 ± 0.28 kg/m3 to 873.53 ± 0.14 kg/m3.

Going from `CCCCCCCCCCCCO` [dodecan-1-ol] to `CCCCCCCCCCO` [decan-1-ol], the mass density rises from 823.35 ± 0.24 kg/m3 to 826.38 ± 0.14 kg/m3.

First: CCCc1ccccc1 [propylbenzene]
Second: CCc1ccccc1 [ethylbenzene]
The mass density of the first is lower: 858.62 ± 0.24 kg/m3 for the first, 862.97 ± 0.16 kg/m3 for the second.

Going from `Cc1ccccc1` [toluene] to `CCCCO` [butan-1-ol], the mass density falls from 863.67 ± 0.14 kg/m3 to 805.78 ± 0.15 kg/m3.

Going from `CCCCCCCCO` [octan-1-ol] to `CCCCCCO` [hexan-1-ol], the mass density falls from 823.27 ± 0.14 kg/m3 to 814.94 ± 0.15 kg/m3.

`CCCC[N+]1(C)CCCC1.FC(F)(F)C(F)(F)[P-](F)(F)(F)(C(F)(F)C(F)(F)F)C(F)(F)C(F)(F)F` gave a mass density of 1582.63 ± 0.76 kg/m3.
